Experimental data as given in patent US4394390A, “Nasal dosage forms of propranol” (University of Kentucky Research Foundation, priority 1980, dated 1983).

Assays:
[1] = rat, in vivo
[2] = cited from earlier work
[3] = in vivo; conditions: rat
[4] = in vivo; conditions: dog
[5] = Crossover study of propranolol plasma levels after nasal, intravenous and oral administration in dogs
[6] = Bioavailability of propranolol from nasal solution vs oral and intravenous administration in rats (blood levels, AUC); conditions: rat, FIG. 1

CC(C)NCC(O)COc1cccc2ccccc12 (centres unmarked) [propranolol, 1-(isopropylamino)-3-(1-naphthyloxy)-2-propanol]
dependence of area under the blood level curve on dose [1]: directly proportional to the dose | oral bioavailability, AUC ratio (oral/nasal)×100 ([1]; 240 min): about 15% | variation of plasma levels among subjects ([2]; human, intravenous, 10 mg, same five subjects): varied only two fold | variation of peak plasma levels among subjects ([2]; human, oral, 80 mg, five subjects): varied seven fold | bioavailability (ratio of AUC of 80 mg oral dose and 10 mg I.V. dose) ([2]; human, oral, lowest in some subjects): 16% | absorption from oral dosage forms ([2]; oral dosage forms): inefficiently and variably absorbed from oral dosage forms | Tmax [3]: ≤ 5 min | bioavailability at 4 h ([3]; Ratio (AUC nasal vs I.V.)): 99.6% | bioavailability at 4 h ([3]; po, Ratio (AUC oral vs I.V.)): 17.9% | bioavailability at 4 h ([3]; po, oral bioavailability, AUC ratio (oral/I.V.)×100): ~15% | bioavailability at 8 h ([4]; AUC(Nasal)/AUC(I.V.)): 96.7% | bioavailability ([4]; bioavailability from the nasal route relative to the intravenous route): 99.1% | bioavailability at 8 h ([4]; po, AUC(P.O.)/AUC(I.V.)): 8.9% | bioavailability ([4]; po, bioavailability from the oral route relative to the intravenous route): 7.4% | plasma levels after intravenous and nasal administration compared ([5]; dog, 20 mg, nasal vs I.V., FIG. 2): virtually identical | plasma levels after oral administration ([5]; dog, 20 mg, oral compared with I.V. and nasal, FIG. 2): considerably lower plasma levels | absorption from the nasal mucosa into systemic blood ([5]; nasal, conclusion from dog study and rat study): rapidly absorbed from the nasal mucosa into systemic blood without the first pass metabolism | blood level after nasal administration compared with intravenous administration ([6]; nasal 1 mg vs I.V. 1 mg): identical to the blood level after intravenous administration | absorption from the nasal mucosa ([6]; nasal): very rapidly absorbed from the nasal mucosa | blood level after oral administration ([6]; oral, same dosage level (1 mg), compared with nasal and I.V.): considerably lower blood levels
